This is an account of results in US11747335B2, “Compositions and methods for assaying platelet reactivity and treatment selection” (University of Vermont And State Agriculture College, priority 2012, dated 2023).

The test system of one test is FcγRIIa. The experiment in a line: Phosphorylation of FcγRIIa during platelet activation (immunoprecipitation, Western blot with anti-phosphotyrosine). It is filed as cell-based, human. On the procedure:
Whole platelet lysates were prepared by the addition of an equal volume of 2× lysis buffer (2% Nonidet P-40 1, 300 mM NaCl, 50 mM Tris, 2 mM Na3VO4, halt protease and phosphatase inhibitor cocktail [Pierce Biochemicals], ph 7.3) in an ice bath for 30 min. Lysates to be used for immunoprecipitation were pre-cleared of antibodies by the addition of protein G Dynabeads (Invitrogen, Carlsbad, Calif.).
Immunoprecipitation was performed overnight at 4° C. with the use of goat anti-CD32A/C (Santa Cruz Biotechnology, Santa Cruz, Calif.) or a mouse anti-phosphotyrosine conjugated with magnetic beads (4G10, Millipore, Billerica, Mass.). When anti-CD32A/C was used, antigen-antibody complexes were isolated with the use of protein G-coated magnetic beads (Dynabeads, Invitrogen, Carlsbad, Calif.) for 3 hours. Beads with antigen-antibody complexes were washed once with 0.5× lysis buffer and twice with phosphate buffered saline. Proteins were separated from beads in sample buffer before electrophoresis and wet transfer to Immobilon FL membranes (Millipore, Billerica, Mass.). […] Bands were detected with the use of use of a Li-Cor Odyssey Infrared Imaging system (Li-Cor Biosciences, Lincoln, Nebr.) or chemiluminescence (Amersham/General Electric Healthcare, Piscataway, N.J.).
(In general: Immunoblotting shows a protein as a band on a membrane.)

Test [1] has as its system platelets. Nature of the test: cells. The note with it: for fold induction at 0.5 µg/mL: Homo sapiens, Platelet. The format is cell-based, human. From the text: Volumes used minimize aggregation of platelets during activation. Activation of platelets was identified by anti-CD62-phycoerythrin (PE, identifies P-selectin) and fluorescein isothiocyanate (FITC)-conjugated PAC-1 (binds to activated GP IIb-IIIa) as described (Serrano F A, et al., Thromb J 2007; 5:7; Schneider D J, et al., Circulation 96:2877-83, 1997; Kabbani S S, et al., Circulation 2001; 104:181-6; Aggarwal A, et al., Am J Kidney Dis 2002; 40:315-22; and Schneider D J, et al., Diabetes Care, 32:944-9, 2009). Platelet expression of FcγRIIa was quantified with the use of anti-CD32-PE. For both assays (activation and quantification of expression of FcγRIIa) PE-Cy5-anti-CD42b was used as an activation independent marker of platelets. […] Fluorochrome labeled antibodies were from Becton Dickinson (San Jose, Calif.). […] Louis, Mo.), and ADP from BioData (Horsham, Pa.). […] J. et al., J Exp Med 1986; 163:826-836). The SRC kinase antagonist PP2 (EMD Biosciences) was dissolved in dimethylsulfoxide (DMSO, Sigma). Tirofiban was obtained from Merck Research Laboratories (Whitehouse Station, N.J.). The reaction mixture was incubated for 15 minutes at room temperature without stirring before platelets were fixed and erythrocytes lysed by addition of Optilyse-C solution (Beckman Coulter). Flow cytometric analysis was performed with the use of a Beckman Coulter FC500 (Miami, Fla.). Platelets were identified on the basis of size (forward and side scatter) and the binding of an activation independent ligand (anti-CD42b). As described, control samples to define a threshold for activation-dependent binding used non-immune IgG (Serrano F A, et al., Thromb J 2007; 5:7; Schneider D J, et al., Circulation 96:2877-83, 1997; Kabbani S S, et al., Circulation 2001; 104:181-6; Aggarwal A, et al., Am J Kidney Dis 2002; 40:315-22; and Schneider D J, et al., Diabetes Care, 32:944-9, 2009). Activation of platelets is reported as the percentage of platelets that bound an activation dependent ligand, a result that we have shown correlates directly with mean fluorescence intensity (Schneider D J, et al., Thromb Haemost 2001; 85:309-13).

The subject of test [2] is platelets. Nature of the test: Platelet activation in whole blood by flow cytometry, binding of PAC-1 (activated GP IIb-IIIa). The format is cell-based, human. From the text: Volumes used minimize aggregation of platelets during activation. Activation of platelets was identified by anti-CD62-phycoerythrin (PE, identifies P-selectin) and fluorescein isothiocyanate (FITC)-conjugated PAC-1 (binds to activated GP IIb-IIIa) as described (Serrano F A, et al., Thromb J 2007; 5:7; Schneider D J, et al., Circulation 96:2877-83, 1997; Kabbani S S, et al., Circulation 2001; 104:181-6; Aggarwal A, et al., Am J Kidney Dis 2002; 40:315-22; and Schneider D J, et al., Diabetes Care, 32:944-9, 2009). Platelet expression of FcγRIIa was quantified with the use of anti-CD32-PE. For both assays (activation and quantification of expression of FcγRIIa) PE-Cy5-anti-CD42b was used as an activation independent marker of platelets. […] Fluorochrome labeled antibodies were from Becton Dickinson (San Jose, Calif.). […] Louis, Mo.), and ADP from BioData (Horsham, Pa.). […] J. et al., J Exp Med 1986; 163:826-836). The SRC kinase antagonist PP2 (EMD Biosciences) was dissolved in dimethylsulfoxide (DMSO, Sigma). Tirofiban was obtained from Merck Research Laboratories (Whitehouse Station, N.J.). […] Activation of platelets is reported as the percentage of platelets that bound an activation dependent ligand, a result that we have shown correlates directly with mean fluorescence intensity (Schneider D J, et al., Thromb Haemost 2001; 85:309-13).
On the technique in general: Flow cytometry measures light scatter and fluorescence of single cells or particles in a stream.

Another test deals with Megakaryocyte cell line. Nature of the test: Expression of FcγRIIa by a megakaryocyte cell line. It is filed as cell-based. The note with it: IFNγ treatment; FIG. 10.
In test [3] the test system is human stem cell derived Megakaryocytes. Nature of the test: Expression of FcγRIIa by human stem cell derived megakaryocytes. The format is cell-based. The conditions noted are these: IFNγ treatment; FIG. 11.

“Also recorded” adds a separate entry of the source. Like-named read-outs stand apart in the source and are kept apart here.

As for `Nc1ncnc2c1ncn2[C@@H]1O[C@H](COP(=O)(O)OP(=O)(O)O)[C@@H](O)[C@H]1O` [ADP, adenosine diphosphate], the “time after exposure at which phosphorylation of FcγRIIa was greatest” value in the test on FcγRIIa (platelets from healthy subjects, thrombin 50 nM, convulxin 10 ng/ml, ADP 25 μM, PAF 100 nM) lay in the range of 3 to 5 min.

As for `CC(C)(C)n1nc(-c2ccc(Cl)cc2)c2c(N)ncnc21` [PP2], in the test on FcγRIIa (PP2 20 μM), the “effect of PP2 on phosphorylation of FcγRIIa during platelet activation” value was “prevented phosphorylation”. Moreover, in the test with platelets [1] (PP2 20 μM vs vehicle DMSO, whole blood, healthy subjects n=7, FIG. 6B), the “effect of PP2 on agonist-induced platelet activation, P-selectin expression” value is “inhibited activation induced by each agonist”. For the same compound, the “effect of PP2 on agonist-induced platelet activation, PAC-1 binding” value in the test on platelets [2] (PP2 20 μM vs vehicle DMSO, whole blood, healthy subjects n=7, FIG. 6A) was “inhibited activation induced by each agonist”.

Take `CCCCS(=O)(=O)N[C@@H](Cc1ccc(OCCCCC2CCNCC2)cc1)C(=O)O` [tirofiban]: the fold induction at 0.5 µg/mL in the test on platelets [1] (read-out: fold induction of ADP induced platelet activation by added fibrinogen after pretreatment with tirofiban) came to 1.2 ± 0.1; in the test with platelets [1] (read-out: fold induction of ADP-induced platelet activation by added Factor XIII after pretreatment with tirofiban), 0.8 ± 0.2. In addition, the “effect of tirofiban on platelet activation induced by goat anti-FcγRIIa” value with platelets [1] (tirofiban 0.5 μg/ml, activator goat anti-FcγRIIa) is on record as “nor did it alter activation”. Besides, in the test on platelets [1] (tirofiban 0.5 μg/ml, n=3 subjects, FIG. 5D), the “effect of tirofiban on agonist-induced P-selectin expression” value is given as “did not attenuate”. Moreover, the “effect of tirofiban on binding of PAC-1 to platelets” value with platelets [2] (tirofiban 0.5 μg/ml) is recorded as “blocked completely; also recorded: abolished binding of PAC-1”.

With “IFNγ: cytokine that increases FcγRIIa expression by megakaryocytes”, the “effect on expression of FcγRIIa by a Megakaryocyte cell line” value with Megakaryocyte cell line is recorded as “increases”. Besides, in test [3], the “effect on expression of FcγRIIa by human stem cell derived Megakaryocytes” value is listed as “increases”.
